POC and IC50 data for 18 compounds are collected here from patent publication US10689377B2 (Mirati Therapeutics, Inc., priority 2017, dated 2020).

Assay [1] addresses KRas G12C (Homo sapiens, UniProt P01116, C118S/C51S/C80L/G12C). As to the kind of experiment: KRas G12C Modification Assay (LCMS detection of covalent adduct). In kind it is binding. Here is the method: A 10 μL aliquot of each protein solution was then transferred to a 384 well microtiter plate. Initial compound stocks were generated at fifty times their desired final assay concentration in DMSO.
Exemplary compounds of Formula (I) were diluted 25-fold into K-Ras Assay Buffer to a final of two times their final concentration. A 10 μL aliquot of each diluted compound solution was then added to each of the protein solutions in the microtiter plate to initiate reaction. […] At each time point, the reactions were quenched with 20 μL of a 25 mM acetic acid solution. […] Once all reactions were quenched, the plates were heat sealed and the samples were injected into a LC/MS system for data acquisition.
Samples were injected in their liquid phase onto a C-3 reverse phase column to remove assay buffer and prepare the samples for mass spectrometer. The proteins were eluted from the column using an acetonitrile gradient and fed directly into the mass analyzer. Initial raw data analysis took place in Agilent MassHunter software immediately post data acquisition.
Raw data analysis of the intact protein was exclusively a deconvolution of the multiple charge states of each protein in solution using a maximum entropy deconvolution provided in Mass Hunter. To minimize complexity, only the data over limited mass ranges were considered for analysis, with a minimum of one Dalton mass step intervals. The heights of all masses identified during raw data analysis were exported to be further analyzed in Spotfire® data analysis software.
Final data analysis was a multistep process in the Spotfire® data analysis software package. Briefly, each protein mass was calculated as a percent of the total signal of that sample, that percentage was then normalized to the percentage of signal of the protein in the absence of reactive compounds. Those normalized signals were reported as normalized percent of control (POC). […] Key: “A”≤25% POC; “B”>25% POC-≤50% POC; “C”>50% POC and ND=not determined.

Assay [2] has as its target KRas G12C (Homo sapiens, UniProt P01116, G12C). The assay can be described thus: Cellular inhibition of KRas G12C measured by Phospho-ERK in NCI-H358 cells. In kind it is cell-based. A digest of the protocol:
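NCI-H358 cells were allowed to attach for 8-12 hours, then exposed to compounds for 3 hours at 0.5% DMSO final. After formaldehyde fixation and methanol permeabilization, phospho-ERK (Thr202/Tyr204) was detected by in-cell immunofluorescence and normalized to GAPDH; IC50 came from a 4-parameter fit of percent-of-DMSO values.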

Setting [3] is: normalized percent of control, 5 μM concentration for 3 hours.
Where [4] appears, read: pERK(Thr202/Tyr204) normalized with GAPDH, NCI-H358 cells, 3 hours, read-out: IC50.

Like-named read-outs stand apart in the source and are kept apart here.

One may read the IC50 as the concentration needed to halve the response being measured. In the case of `C=C(F)C(=O)N1CCN(c2nc(OC[C@@H]3CCCN3C)nc3c2CCN(c2cccc4cccc(C5CC5)c24)C3)C[C@@H]1CC#N` [Example 590, 2-((S)-4-(7-(8-Cyclopropylnaphthalen-1-yl)-2-(((S)-1-methylpyrrolidin-2-yl)methoxy)-5,6,7,8-tetrahydropyrido[3,4-d]pyrimidin-4-yl)-1-(2-fluoroacryloyl)piperazin-2-yl)acetonitrile], the POC result at KRas G12C [1] (setting [3]) is “B (“B”>25% POC-≤50% POC)”. Further, the 50% inhibitory concentration (IC50) on KRas G12C [2] (setting [4]) is over 1000 nM.
The matching figures for `CN1C[C@H](F)C[C@H]1COc1nc2c(c(N3CCN(C(=O)/C=C/CF)[C@@H](CC#N)C3)n1)CCN(c1cccc3cccc(Cl)c13)C2` [Example 582, 2-((S)-4-(7-(8-Chloronaphthalen-1-yl)-2-(((2S,4R)-4-fluoro-1-methylpyrrolidin-2-yl)methoxy)-5,6,7,8-tetrahydropyrido[3,4-d]pyrimidin-4-yl)-1-((E)-4-fluorobut-2-enoyl)piperazin-2-yl)acetonitrile]: “C (“C”>50% POC)” and 0.1 to 1000 nM.
As for `C=C(F)C(=O)N1CCN(c2nc(OC[C@@H]3CCCN3)nc3c2CCN(c2cccc4cccc(C)c24)C3)C[C@@H]1CC#N` [Example 568, 2-[(2S)-1-(2-Fluoroprop-2-enoyl)-4-[7-(8-methyl-1-naphthyl)-2-[[(2S)-pyrrolidin-2-yl]methoxy]-6,8-dihydro-5H-pyrido[3,4-d]pyrimidin-4-yl]piperazin-2-yl]acetonitrile], the POC entry at KRas G12C [1] (setting [3]) is “C (“C”>50% POC)”. At KRas G12C [2] (setting [4]), the half-maximal inhibitory concentration (IC50) was in the range of 0.1 to 1000 nM.
The matching figures for `C=CC(=O)N1CCN(c2nc(OCCCN3CCOCC3)nc3c2CCN(c2cc(O)cc4cccnc24)C3)CC1` [Example 205, 1-(4-(7-(6-hydroxyquinolin-8-yl)-2-(3-morpholinopropoxy)-5,6,7,8-tetrahydropyrido[3,4-d]pyrimidin-4-yl)piperazin-1-yl)prop-2-en-1-one]: “C (“C”>50% POC)” and over 1000 nM.
The matching figures for `C=CC(=O)N1CCN(c2nc(OC[C@@H]3CCCN3C)nc3c2CCN(c2ccccc2C(C)C)C3)CC1` [Example 158, 1-[4-[7-(2-isopropylphenyl)-2-[[(2S)-1-methylpyrrolidin-2-yl]methoxy]-6,8-dihydro-5H-pyrido[3,4-d]pyrimidin-4-yl]piperazin-1-yl]prop-2-en-1-one]: “C (“C”>50% POC)” and over 1000 nM.
The matching figures for `C=C(F)C(=O)N1CCN(c2nc(OC[C@@H]3C[C@@H](OC)CN3C)nc3c2CCN(c2cccc4cccc(C)c24)C3)C[C@@H]1CC#N` [Example 561, 2-[(2S)-1-(2-Fluoroprop-2-enoyl)-4-[2-[[(2S,4R)-4-methoxy-1-methyl-pyrrolidin-2-yl]methoxy]-7-(8-methyl-1-naphthyl)-6,8-dihydro-5H-pyrido[3,4-d]pyrimidin-4-yl]piperazin-2-yl]acetonitrile]: “C (“C”>50% POC)” and 0.1 to 1000 nM.
Consider `C=CC(=O)N1CCN(c2nc(OC[C@@H]3CCCN3C)nc3c2CCN(c2cccc4ccccc24)C3)C[C@@H]1CC#N` [Example 234, 2-((S)-1-acryloyl-4-(2-(((S)-1-methylpyrrolidin-2-yl)methoxy)-7-(naphthalen-1-yl)-5,6,7,8-tetrahydropyrido[3,4-d]pyrimidin-4-yl)piperazin-2-yl)acetonitrile], for which the POC result on KRas G12C [1] (setting [3]) was “C (“C”>50% POC)”. Also, the IC50 on KRas G12C [2] (setting [4]) lay within 0.1 to 1000 nM.
The matching figures for `C=C(F)C(=O)N1CCN(c2nc(OC[C@@H]3CCCN3C)nc3c2CCN(c2cncc4cccc(Cl)c24)C3)C[C@@H]1CC#N` [Example 593, 2-((S)-4-(7-(5-Chloroisoquinolin-4-yl)-2-(((S)-1-methylpyrrolidin-2-yl)methoxy)-5,6,7,8-tetrahydropyrido[3,4-d]pyrimidin-4-yl)-1-(2-fluoroacryloyl)piperazin-2-yl)acetonitrile]: “C (“C”>50% POC)” and 0.1 to 1000 nM.
The matching figures for `Cc1cccc2cccc(N3CCc4c(nc(OC[C@@H]5C[C@@H](F)CN5C)nc4N4CCN(C(=O)/C=C/CF)[C@@H](CC#N)C4)C3)c12` [Example 578, 2-[(2S)-1-[(E)-4-Fluorobut-2-enoyl]-4-[2-[[(2S,4R)-4-fluoro-1-methyl-pyrrolidin-2-yl]methoxy]-7-(8-methyl-1-naphthyl)-6,8-dihydro-5H-pyrido[3,4-d]pyrimidin-4-yl]piperazin-2-yl] acetonitrile]: “C (“C”>50% POC)” and 0.1 to 1000 nM.
In the case of `C=CC(=O)N1CCN(c2nc(OC[C@@H]3CCCN3C)nc3c2CCN(c2cccc4c2OCC4)C3)C[C@@H]1CC#N` [Example 435, 2-((S)-1-acryloyl-4-(7-(2,3-dihydrobenzofuran-7-yl)-2-(((S)-1-methylpyrrolidin-2-yl)methoxy)-5,6,7,8-tetrahydropyrido[3,4-d]pyrimidin-4-yl)piperazin-2-yl)acetonitrile], the POC result on KRas G12C [1] (setting [3]) was “C (“C”>50% POC)”. Further, the IC50 at KRas G12C [2] (setting [4]) was 0.1 to 1000 nM.
As for `C=CC(=O)N1CCN(c2nc(OC[C@H]3CCCN3C)nc3c2CCN(c2cccc4ccccc24)C3)C[C@@H]1CC#N` [Example 267, 2-((S)-1-acryloyl-4-(2-(((R)-1-methylpyrrolidin-2-yl)methoxy)-7-(naphthalen-1-yl)-5,6,7,8-tetrahydropyrido[3,4-d]pyrimidin-4-yl)piperazin-2-yl)acetonitrile], on KRas G12C [1] (5 µM), the POC result is reported as “C (key: “A”≤25% POC; “B”>25% POC-≤50% POC; “C”>50% POC)”. Besides, the concentration for half-maximal inhibition (IC50) on KRas G12C [2] (setting [4]) fell in the range of 0.1 to 1000 nM.
On to `C=CC(=O)N1CCN(c2nc(OCCN(C)C)nc3c2CCN(c2cc(O)cc4ccccc24)C3)CC1CCO` (stereo not drawn) [Example 171, 1-(4-(2-(2-(dimethylamino)ethoxy)-7-(3-hydroxynaphthalen-1-yl)-5,6,7,8-tetrahydropyrido[3,4-d]pyrimidin-4-yl)-2-(2-hydroxyethyl)piperazin-1-yl)prop-2-en-1-one], for which the POC result on KRas G12C [1] (5 µM) is “C (key: “A”≤25% POC; “B”>25% POC-≤50% POC; “C”>50% POC)”. Also, the IC50 at KRas G12C [2] (IC50) is over 1000 nM.
With `C=CC(=O)N1CCN(c2nc(OC[C@@H]3CCCN3C)nc3c2CCN(c2c(F)c(O)cc4ccccc24)C3)CC1` [Example 249, 1-[4-[7-(2-fluoro-3-hydroxy-1-naphthyl)-2-[[(2S)-1-methylpyrrolidin-2-yl]methoxy]-6,8-dihydro-5H-pyrido[3,4-d]pyrimidin-4-yl]piperazin-1-yl]prop-2-en-1-one], the POC entry at KRas G12C [1] (setting [3]) is on record as “C (“C”>50% POC)”. In addition, the 50% inhibitory concentration (IC50) on KRas G12C [2] (setting [4]) lay within 0.1 to 1000 nM.
Consider `C=C(F)C(=O)N1CCN(c2nc(OC[C@@H]3CCCN3C)nc3c2CCN(c2cccc4cccc(CO)c24)C3)C[C@@H]1CC#N` [Example 567, 2-[(2S)-1-(2-Fluoroprop-2-enoyl)-4-[7-[8-(hydroxymethyl)-1-naphthyl]-2-[[(2S)-1-methylpyrrolidin-2-yl]methoxy]-6,8-dihydro-5H-pyrido[3,4-d]pyrimidin-4-yl]piperazin-2-yl]acetonitrile], for which the POC result at KRas G12C [1] (setting [3]) is “C (“C”>50% POC)”. The IC50 at KRas G12C [2] (setting [4]) was over 1000 nM.
Take `C=CC(=O)N1CCN(c2nc(OC[C@@H]3CCCN3C)nc3c2CCN(c2cccc4ccc(C)cc24)C3)CC1CC#N` (stereo partly drawn) [Example 245, 2-[4-[7-(7-methyl-1-naphthyl)-2-[[(2S)-1-methylpyrrolidin-2-yl]methoxy]-6,8-dihydro-5H-pyrido[3,4-d]pyrimidin-4-yl]-1-prop-2-enoyl-piperazin-2-yl]acetonitrile]: the POC entry on KRas G12C [1] (setting [3]) was “C (“C”>50% POC)”. Further, at KRas G12C [2] (setting [4]), the IC50 was in the range of 0.1 to 1000 nM.
`CN1CCC[C@@H]1COc1nc2c(c(N3CCN(C(=O)/C=C/CF)[C@@H](CC#N)C3)n1)CCN(c1cccc3cccc(Cl)c13)C2` [Example 586, 2-[(2S)-4-[7-(8-chloro-1-naphthyl)-2-[[(2R)-1-methylpyrrolidin-2-yl]methoxy]-6,8-dihydro-5H-pyrido[3,4-d]pyrimidin-4-yl]-1-[(E)-4-fluorobut-2-enoyl]piperazin-2-yl]acetonitrile]: the POC result at KRas G12C [1] (setting [3]) is “C (“C”>50% POC)”. Besides, at KRas G12C [2] (setting [4]), the IC50 lay within 0.1 to 1000 nM.
For the compound `C=CC(=O)N1CCN(c2nc(OCCN3CCC[C@@H](F)C3)nc3c2CCN(c2cc(O)cc4ccccc24)C3)CC1` [Example 207, (R)-1-(4-(2-(2-(3-fluoropiperidin-1-yl)ethoxy)-7-(3-hydroxynaphthalen-1-yl)-5,6,7,8-tetrahydropyrido[3,4-d]pyrimidin-4-yl)piperazin-1-yl)prop-2-en-1-one], at KRas G12C [1] (setting [3]), the POC result is recorded as “C (“C”>50% POC)”. Also, the half-maximal inhibitory concentration (IC50) at KRas G12C [2] (setting [4]) was over 1000 nM.
The corresponding values for `C=C(F)C(=O)N1CCN(c2nc(OC[C@@H]3CCCN3C)nc3c2CCN(c2cccc4ccnc(Cl)c24)C3)C[C@@H]1CC#N` [Example 595, 2-((S)-4-(7-(1-chloroisoquinolin-8-yl)-2-(((S)-1-methylpyrrolidin-2-yl)methoxy)-5,6,7,8-tetrahydropyrido[3,4-d]pyrimidin-4-yl)-1-(2-fluoroacryloyl)piperazin-2-yl)acetonitrile] are “C (“C”>50% POC)” and 0.1 to 1000 nM.
